Test results published in patent publication US10829481B2, “Benzimidazole derivatives as modulators of ROR-gamma” (Vitae Pharmaceuticals, LLC, priority 2016, dated 2020).

Legend:
[1] = target: recombinant RORγ Ligand Binding Domain (LBD) protein (Homo sapiens (Human), UniProt P51449); assay: Radio-Ligand RORγ Binding Assay (Assay 1); details: competition with 25-hydroxy [26,27-3H]-cholesterol, SPA
In short: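 Scintillation proximity competition against 25-hydroxy [26,27-^3H]-cholesterol (8.6 nM solution) for 6×His-GST-tagged RORγ LBD (24 nM solution) in HEPES pH 7.4 with CHAPS, β-octylglucopyranoside and DTT; semi-log compound dilutions, ~1 h total at rt with poly-Lys YSi beads. IC50 from four-parameter fit; Ki derived from [RL] and radioligand KD.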

[2] = target: full-length RORγt in Jurkat cells (Homo sapiens (Human), UniProt P51449); assay: RORγt 5×RORE Assay in Jurkat Cells (Assay 2); format: cell-based; details: 5×RORE Nanoluc luciferase reporter
Chain of full-length RORγt in Jurkat cells (P51449 other isoform, or with tags, fused parts or gaps): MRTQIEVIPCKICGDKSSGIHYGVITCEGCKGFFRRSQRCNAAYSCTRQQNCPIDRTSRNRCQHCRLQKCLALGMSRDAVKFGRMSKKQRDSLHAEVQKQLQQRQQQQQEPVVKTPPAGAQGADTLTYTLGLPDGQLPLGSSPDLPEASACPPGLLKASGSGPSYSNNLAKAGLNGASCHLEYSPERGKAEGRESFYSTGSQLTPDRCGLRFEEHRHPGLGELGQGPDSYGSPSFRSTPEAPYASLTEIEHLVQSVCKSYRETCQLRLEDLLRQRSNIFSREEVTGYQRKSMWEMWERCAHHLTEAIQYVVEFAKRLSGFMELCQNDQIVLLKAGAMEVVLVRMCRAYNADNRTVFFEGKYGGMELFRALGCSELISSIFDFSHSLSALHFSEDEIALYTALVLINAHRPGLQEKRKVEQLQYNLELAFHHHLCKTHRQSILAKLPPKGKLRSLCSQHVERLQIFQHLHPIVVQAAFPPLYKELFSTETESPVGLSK

Chain of recombinant RORγ Ligand Binding Domain (LBD) protein (P51449 269-508): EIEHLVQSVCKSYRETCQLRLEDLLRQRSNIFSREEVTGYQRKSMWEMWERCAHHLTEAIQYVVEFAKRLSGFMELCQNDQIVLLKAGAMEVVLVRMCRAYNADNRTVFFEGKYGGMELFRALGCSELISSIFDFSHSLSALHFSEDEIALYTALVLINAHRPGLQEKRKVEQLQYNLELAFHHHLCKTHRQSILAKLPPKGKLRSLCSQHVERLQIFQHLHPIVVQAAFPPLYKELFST

| Structure (SMILES) | Ki [1] [nM] | IC50 [2] [nM] |
| --- | --- | --- |
| CNS(=O)(=O)c1ccc(CNC(=O)c2ccc3c(c2)nc(C2CC2)n3Cc2cccc3c2OC(F)(F)O3)cc1 [I-35, 2-cyclopropyl-1-((2,2-difluorobenzo[d][1,3]dioxol-4-yl)methyl)-N-(4-(N-methylsulfamoyl)benzyl)-1H-benzo[d]imidazole-5-carboxamide] | < 100 | < 100 |
| CCS(=O)(=O)c1ccc(CNC(=O)c2ccc3c(c2)nc(C2CCC2)n3Cc2cccc3c2OC(F)(F)O3)cc1 [I-36, 2-cyclobutyl-1-((2,2-difluorobenzo[d][1,3]dioxol-4-yl)methyl)-N-(4-(ethylsulfonyl)benzyl)-1H-benzo[d]imidazole-5-carboxamide] | < 100 | < 100 |
| CCS(=O)(=O)c1ccc(CNC(=O)c2ccc3c(c2)nc(C(F)F)n3Cc2cccc3c2OC(F)(F)O3)cc1 [I-37, 1-((2,2-difluorobenzo[d][1,3]dioxol-4-yl)methyl)-2-(difluoromethyl)-N-(4-(ethylsulfonyl)benzyl)-1H-benzo[d]imidazole-5-carboxamide] | < 100 | < 100 |
| CCS(=O)(=O)c1ccc(CNC(=O)c2ccc3c(c2)nc(C(C)(F)F)n3Cc2cccc3c2OC(F)(F)O3)cc1 [I-38, 1-((2,2-difluorobenzo[d][1,3]dioxol-4-yl)methyl)-2-(1,1-difluoroethyl)-N-(4-(ethylsulfonyl)benzyl)-1H-benzo[d]imidazole-5-carboxamide] | < 100 | < 100 |
| CCS(=O)(=O)c1ccc(CNC(=O)c2ccc3c(c2)nc([C@H]2CCCO2)n3Cc2cccc3c2OC(F)(F)O3)cc1 [I-39.1, (R)-1-((2,2-difluorobenzo[d][1,3]dioxol-4-yl)methyl)-N-(4-(ethylsulfonyl)benzyl)-2-(tetrahydrofuran-2-yl)-1H-benzo[d]imidazole-5-carboxamide] | < 100 | < 100 |
| CCS(=O)(=O)c1ccc(CNC(=O)c2ccc3c(c2)nc([C@@H]2CCCO2)n3Cc2cccc3c2OC(F)(F)O3)cc1 [I-39.2, (S)-1-((2,2-difluorobenzo[d][1,3]dioxol-4-yl)methyl)-N-(4-(ethylsulfonyl)benzyl)-2-(tetrahydrofuran-2-yl)-1H-benzo[d]imidazole-5-carboxamide] | < 100 | < 100 |
| CS(=O)(=O)c1ccc(CNC(=O)c2ccc3c(c2)nc(C2(F)CC2)n3Cc2cccc3c2OC(F)(F)O3)cc1 [I-40, 1-((2,2-difluorobenzo[d][1,3]dioxol-4-yl)methyl)-2-(1-fluorocyclopropyl)-N-(4-(methylsulfonyl)benzyl)-1H-benzo[d]imidazole-5-carboxamide] | < 100 | < 100 |
| O=C(NCc1ccc(S(=O)(=O)CCO)cc1)c1ccc2c(c1)nc(C1(F)CC1)n2Cc1cccc2c1OC(F)(F)O2 [I-41, 1-((2,2-difluorobenzo[d][1,3]dioxol-4-yl)methyl)-2-(1-fluorocyclopropyl)-N-(4-((2-hydroxyethyl)sulfonyl)benzyl)-1H-benzo[d]imidazole-5-carboxamide] | < 100 | < 100 |
| CNS(=O)(=O)c1ccc(CNC(=O)c2ccc3c(c2)nc(C2(F)CC2)n3Cc2cccc3c2OC(F)(F)O3)cc1 [I-42, 1-((2,2-difluorobenzo[d][1,3]dioxol-4-yl)methyl)-2-(1-fluorocyclopropyl)-N-(4-(N-methylsulfamoyl)benzyl)-1H-benzo[d]imidazole-5-carboxamide] | < 100 | < 100 |
| CCS(=O)(=O)c1ccc(CNC(=O)c2ccc3c(c2)nc(C2(F)CCC2)n3Cc2cccc3c2OC(F)(F)O3)cc1 [I-43, 1-((2,2-difluorobenzo[d][1,3]dioxol-4-yl)methyl)-N-(4-(ethylsulfonyl)benzyl)-2-(1-fluorocyclobutyl)-1H-benzo[d]imidazole-5-carboxamide] | < 100 | < 100 |
| O=C(NCc1ccc(S(=O)(=O)CCO)cc1)c1ccc2c(c1)nc(C(F)(F)F)n2Cc1cccc2c1OC(F)(F)O2 [I-45, 1-((2,2-difluorobenzo[d][1,3]dioxol-4-yl)methyl)-N-(4-((2-hydroxyethyl)sulfonyl)benzyl)-2-(trifluoromethyl)-1H-benzo[d]imidazole-5-carboxamide] | < 100 | < 100 |
| CNS(=O)(=O)c1ccc(CNC(=O)c2ccc3c(c2)nc(C(F)(F)F)n3Cc2cccc3c2OC(F)(F)O3)cc1 [I-46, 1-((2,2-difluorobenzo[d][1,3]dioxol-4-yl)methyl)-N-(4-(N-methylsulfamoyl)benzyl)-2-(trifluoromethyl)-1H-benzo[d]imidazole-5-carboxamide] | < 100 | < 100 |
| O=C(NCc1ccc(S(=O)(=O)CCO)cc1)c1ccc2c(c1)nc(C1CC1)n2Cc1cccc2c1OC(F)(F)O2 [I-47, 2-cyclopropyl-1-((2,2-difluorobenzo[d][1,3]dioxol-4-yl)methyl)-N-(4-((2-hydroxyethyl)sulfonyl)benzyl)-1H-benzo[d]imidazole-5-carboxamide] | < 100 | < 100 |
| CS(=O)(=O)c1ccc(CNC(=O)c2ccc3c(c2)nc(C(F)(F)F)n3Cc2cccc3c2OC(F)(F)O3)cc1 [I-48, 1-((2,2-difluorobenzo[d][1,3]dioxol-4-yl)methyl)-N-(4-(methylsulfonyl)benzyl)-2-(trifluoromethyl)-1H-benzo[d]imidazole-5-carboxamide] | < 100 | < 100 |
| CS(=O)(=O)c1ccc(CNC(=O)c2ccc3c(c2)nc(C(F)F)n3Cc2cccc3c2OC(F)(F)O3)cc1 [I-50, 1-((2,2-difluorobenzo[d][1,3]dioxol-4-yl)methyl)-2-(difluoromethyl)-N-(4-(methylsulfonyl)benzyl)-1H-benzo[d]imidazole-5-carboxamide] | < 100 | < 100 |
| NS(=O)(=O)c1ccc(CNC(=O)c2ccc3c(c2)nc(C(F)(F)F)n3Cc2cccc3c2OC(F)(F)O3)cc1 [I-51, 1-((2,2-difluorobenzo[d][1,3]dioxol-4-yl)methyl)-N-(4-sulfamoylbenzyl)-2-(trifluoromethyl)-1H-benzo[d]imidazole-5-carboxamide] | < 100 | 100 to 1000 |
| CCCS(=O)(=O)c1ccc(CNC(=O)c2ccc3c(c2)nc(C(F)(F)F)n3Cc2cccc3c2OC(F)(F)O3)cc1 [I-52, 1-((2,2-difluorobenzo[d][1,3]dioxol-4-yl)methyl)-N-(4-(propylsulfonyl)benzyl)-2-(trifluoromethyl)-1H-benzo[d]imidazole-5-carboxamide] | < 100 | < 100 |
| COC(=O)CS(=O)(=O)c1ccc(CNC(=O)c2ccc3c(c2)nc(C(F)(F)F)n3Cc2cccc3c2OC(F)(F)O3)cc1 [I-53, methyl 2-((4-((1-((2,2-difluorobenzo[d][1,3]dioxol-4-yl)methyl)-2-(trifluoromethyl)-1H-benzo[d]imidazole-5-carboxamido)methyl)phenyl)sulfonyl)acetate] | < 100 | 100 to 1000 |
| CCS(=O)(=O)c1ccc(CNC(=O)c2ccc3c(c2)nc(C(C)(C)OC)n3Cc2cccc3c2OC(F)(F)O3)cc1 [I-54, 1-((2,2-difluorobenzo[d][1,3]dioxol-4-yl)methyl)-N-(4-(ethylsulfonyl)benzyl)-2-(2-methoxypropan-2-yl)-1H-benzo[d]imidazole-5-carboxamide] | < 100 | < 100 |
